In PMC8655237 (Journal of Advanced Research, 2021):
Where two headings read alike, the source gives them in different places.

Columns and labels:
[1] = test system: A431 cells; assay: DCFH-DA ROS assay; format: cell-based, human; settings: A431, highest concentration, 24 h, spectrofluorometer
[2] = test system: A431; assay: NRU antiproliferative assay; format: cell-based; settings: Homo sapiens, A-431, 24 h, read-out: IC50 (NRU)
[3] = test system: FaDu; assay: Cell cycle analysis by flow cytometry; format: cell-based, human; settings: 24 h
[4] = test system: MDA-MB-231; assay: Cell cycle analysis by flow cytometry; format: cell-based, human; settings: MDA-MB-231, 24 h
[5] = test system: ODC mRNA; assay: Real-time qPCR expression analysis; format: cell-based, human; settings: GAPDH internal control
[6] = test system: mTOR; assay: mTOR quantification by ELISA in A431 cells; format: cell-based, human; settings: A431, 100 µM, 24 h
[7] = test system: hyaluronidase (HYAL); assay: Hyaluronidase assay, cell-based; parameters: species or system human
[8] = test system: AKT; assay: AKT quantification by ELISA in A431 cells; format: cell-based, human; settings: A431, 100 µM, 24 h
[9] = test system: hyaluronidase; assay: Hyaluronidase activity in EAC cells of treated mice; format: in vivo; settings: 75 mg/kg bw, i.p.
[10] = test system: HYAL mRNA; assay: Real-time qPCR expression analysis; format: cell-based, human; settings: GAPDH internal control
[11] = target: LOX-5 (Homo sapiens, UniProt P09917); assay: LOX-5 assay, cell-based; settings: IC50 LOX-5, cell based, K562
[12] = test system: A549; assay: Cell cycle analysis by flow cytometry; format: cell-based, human; settings: A549, 24 h
[13] = target: T1, Ornithine decarboxylase (ODC) (Homo sapiens, UniProt P11926); assay: ODC assay, cell-based; settings: for IC50: IC50 ODC, cell based
T1 sequence (P11926 1-461): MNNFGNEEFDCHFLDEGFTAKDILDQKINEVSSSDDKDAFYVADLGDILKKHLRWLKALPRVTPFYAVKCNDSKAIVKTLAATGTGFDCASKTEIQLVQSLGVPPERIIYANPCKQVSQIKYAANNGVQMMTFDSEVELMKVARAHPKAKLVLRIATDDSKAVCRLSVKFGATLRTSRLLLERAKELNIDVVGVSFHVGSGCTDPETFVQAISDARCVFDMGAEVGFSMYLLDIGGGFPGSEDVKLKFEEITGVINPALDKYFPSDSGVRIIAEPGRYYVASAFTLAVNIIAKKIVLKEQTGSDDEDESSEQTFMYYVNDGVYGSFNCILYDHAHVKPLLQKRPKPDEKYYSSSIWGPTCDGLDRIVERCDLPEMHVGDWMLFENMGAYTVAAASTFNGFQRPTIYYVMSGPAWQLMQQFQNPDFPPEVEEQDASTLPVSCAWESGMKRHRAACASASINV

[14] = test system: PI3K; assay: PI3K quantification by ELISA in A431 cells; format: cell-based, human; settings: A431, 100 µM, 24 h

Chain of LOX-5 (P09917 whole entry): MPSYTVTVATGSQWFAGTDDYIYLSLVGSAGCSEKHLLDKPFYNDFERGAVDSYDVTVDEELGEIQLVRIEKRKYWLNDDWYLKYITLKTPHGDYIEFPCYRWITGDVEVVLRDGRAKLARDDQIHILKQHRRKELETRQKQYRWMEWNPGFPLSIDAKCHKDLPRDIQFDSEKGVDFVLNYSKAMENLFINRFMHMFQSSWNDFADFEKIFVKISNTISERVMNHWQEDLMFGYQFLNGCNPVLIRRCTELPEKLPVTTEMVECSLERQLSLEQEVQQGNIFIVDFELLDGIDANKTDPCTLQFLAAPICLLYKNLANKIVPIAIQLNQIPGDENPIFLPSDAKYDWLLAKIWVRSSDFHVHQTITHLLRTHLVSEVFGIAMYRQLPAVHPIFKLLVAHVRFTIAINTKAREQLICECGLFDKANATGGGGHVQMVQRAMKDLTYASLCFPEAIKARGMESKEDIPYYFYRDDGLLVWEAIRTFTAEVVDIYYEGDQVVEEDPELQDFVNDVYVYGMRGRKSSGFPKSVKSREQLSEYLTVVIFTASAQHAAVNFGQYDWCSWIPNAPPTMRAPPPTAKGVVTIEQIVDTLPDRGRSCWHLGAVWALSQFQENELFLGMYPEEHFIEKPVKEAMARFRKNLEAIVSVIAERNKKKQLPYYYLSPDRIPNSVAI

Question: How did the “percent increase in the ROS level” value [1] turn out when `CC(C)[C@@H]1CC[C@@H](C)C[C@@H]1O` [neomenthol, (+)-Neomenthol] was run?
Answer: The value was 20.45 ± 0.35%.

Question: What about the IC50 [2] of the same compound?
Answer: Its IC50 is 18.5 ± 3.66 µM.

Question: And the “cell cycle phase arrested” value [3]?
Answer: The value was “G2/M phase”.

Question: And the “cell cycle phase arrested” value [4]?
Answer: Its value is “arrests the S-phase”.

Question: What about the “ODC mRNA expression level” value ([5]; A431, with respect to control) of the same compound?
Answer: The value was 1.15 fold change.

Question: And the “ODC mRNA expression level” value ([5]; A549, with respect to control)?
Answer: The value was 1.18 fold change.

Question: What about the “ODC mRNA expression level” value ([5]; FaDu, with respect to control) of the same compound?
Answer: Its value is 1.08 fold change.

Question: And the “ODC mRNA expression level” value ([5]; MDA-MB-231, with respect to control)?
Answer: The value was 1.05 fold change.

Question: What about the “ODC mRNA expression level” value ([5]; PC-3, with respect to control) of the same compound?
Answer: The value was 1.22 fold change.

Question: What about the “mTOR level (ng/mg of protein)” value [6] of the same compound?
Answer: Its value is 0.336 ± 0.108 ng/mg.

Question: What about the IC50 ([7]; read-out: IC50 HYAL, A431) of the same compound?
Answer: The IC50 was 12.81 ± 0.01 µM.

Question: And the IC50 ([7]; read-out: IC50 HYAL, A549)?
Answer: Its IC50 is 36.8 ± 5.65 µM.

Question: What about the “AKT level (ng/mg of protein)” value [8] of the same compound?
Answer: Its value is 0.125 ± 0.004 ng/mg.

Question: And the “inhibition (modulation) of hyaluronidase activity in EAC cells of mice” value [9]?
Answer: Its value is “up to 10%”.

Question: And the “HYAL mRNA expression level” value ([10]; A431, with respect to control)?
Answer: Its value is 1.52 fold change.

Question: And the “HYAL mRNA expression level” value ([10]; FaDu, with respect to control)?
Answer: Its value is 1.06 fold change.

Question: And the “HYAL mRNA expression level” value ([10]; PC-3, with respect to control)?
Answer: The value was 1.37 fold change.

Question: And the IC50 [11]?
Answer: Its IC50 is 72.2 ± 2.19 µM.

Question: And the “cell cycle phase arrested” value [12]?
Answer: Its value is “G2/M phase”.

Question: What about the “percent inhibition of ODC” value ([13]; A549, PC-3, A431, and FaDu cell lines) of the same compound?
Answer: The value was “below 50%”.

Question: And the IC50 ([13]; K562)?
Answer: Its IC50 is 29.6 ± 2.54 µM.

Question: And the IC50 ([13]; MDA-MB-231)?
Answer: Its IC50 is 57.2 ± 2.84 µM.

Question: And the “PI3K level (ng/mg of protein)” value [14]?
Answer: Its value is 0.006 ± 0.00021 ng/mg.
